Assays:
[1] = test system: patients with Grade II GVHD with GI symptoms; experiment: Phase III randomized, double-blind, placebo-controlled trial: treatment failure with oral BDP plus 10 days of prednisone; assay type: in vivo, human; details: for Cumulative events (treatment failures): full analysis set, 62 randomized
Excerpt: The Secondary objectives of the study were:
To be eligible for entry into the study, patients were at least 10 days post allogeneic hematopoietic cell transplantation, have GI symptoms consistent with Grade II GVHD, and had endoscopic evidence of GVHD. The diagnosis of GVHD was confirmed by biopsy of the intestine (esophagus, stomach, small intestine, or colon) or skin. A total of 129 eligible patients were randomized to one of two treatment groups.
(§1) The randomization was stratified by the source of the allograft (two HLA haplotype identical sibling versus all other), and by topical corticosteroid use (yes versus no). All patients received 10 days of prednisone at 1 mg/kg/day (or an equivalent dose of intravenous [IV] corticosteroid). On Study Day 10, patients determined by the investigator to have their GVHD controlled had their prednisone tapered rapidly over 7 days starting on Study Day 11, and received a maintenance prednisone dose of 0.0625 mg/kg/day for the remainder of the study. BDP doses were evenly divided to include equal quantities of the IR and EC formulations administered four times per day.
1. Treatment failure, defined as use of prednisone or equivalent IV corticosteroids at doses higher than stated in protocol, or addition of other immunosuppressant medications.
The primary efficacy endpoint of this two-arm study was the time to treatment failure. The primary efficacy analysis will compare the time to treatment failure through Study Day 50 using a log-rank test controlling for patient randomization stratum. Product-limit estimates for time to failure will be provided for descriptive purposes. The null hypothesis for the log-rank test is that time to failure is homogeneous across the treatment groups.
Secondary analyses of treatment failure compared the treatment groups with respect to proportion of treatment failures and Karnofsky Scale (or Lansky Scale) scores at key time points. The difference in proportion of treatment failures on Study Days 10, 30, 50, 60, and 80 was evaluated using a two-sided Fisher's Exact test of the null hypothesis of no difference between the treatment groups. The difference in Karnofsky Scale (or Lansky Scale) scores at the same time points was evaluated using a two-sided Wilcoxon test to evaluate the null hypothesis of no difference in medians between treatment groups.
On Study Day 10, patients were evaluated for the signs and symptoms of GVHD. Patients in both treatment groups who met the response criterion of adequately controlled GVHD, as judged by the investigator, had their prednisone tapered over 7 days starting on Study Day 11 (Table 2). Starting on Study Day 17, physiologic replacement doses of prednisone were given for the remainder of the study. If the investigator determined that GVHD was not controlled on Study Day 10, patients discontinued study drug but continued prednisone initially at 1 mg/kg/day; these patients were considered to be treatment failures. In treatment failure cases, physicians subsequently modifiedy prednisone dosage as deemed appropriate.
One hundred and twenty-nine (129) post-bone marrow transplant patients presenting with Grade II iGVHD were enrolled in the randomized, double-blind, placebo-controlled, multi-center clinical trial, which was conducted at 16 bone marrow transplant centers in the United States and France. All patients in the Phase III clinical trial were initially treated with a constant daily dose of high dose (1-2 mg/kg) prednisone, which is the current standard therapy, in combination with an oral dose of either orBec® (8 mg/day) or placebo for the first 10 days. On day 10, if patients were responding to treatment, the high dose prednisone was rapidly tapered and patients continued to receive either orBec® or placebo orally for an additional forty days. […]

[2] = test system: patients with Grade II GVHD with GI symptoms; experiment: Phase III trial: survival/mortality through 200 days post-transplant; assay type: in vivo, human
Experimental: 5. To compare the treatment groups with respect to total deaths and cause of death through 200 days post-transplant.
as §1
7. Patient survival through day 200 post-transplant.
One hundred and twenty-nine (129) post-bone marrow transplant patients presenting with Grade II iGVHD were enrolled in the randomized, double-blind, placebo-controlled, multi-center clinical trial, which was conducted at 16 bone marrow transplant centers in the United States and France. All patients in the Phase III clinical trial were initially treated with a constant daily dose of high dose (1-2 mg/kg) prednisone, which is the current standard therapy, in combination with an oral dose of either orBec® (8 mg/day) or placebo for the first 10 days. On day 10, if patients were responding to treatment, the high dose prednisone was rapidly tapered and patients continued to receive either orBec® or placebo orally for an additional forty days. The primary endpoint of the study was a comparison between the two treatment arms of the time to treatment failure, defined as the need for additional therapies due to uncontrolled signs or symptoms of GVHD. Secondary endpoints in the study included a comparison of the proportion of treatment failures and clinical scores at 10 Days, 30 Days, 50 Days, 60 Days and 80 Days post-randomization, a comparison of cumulative exposure to systemic steroids, as well as a comparison of mortality at Day 200 post-transplant.

[3] = test system: gastrointestinal GVHD patients; details: cited from earlier work
[4] = test system: patients with Grade II GVHD with gastrointestinal symptoms; details: oral BDP 8 mg/day for 30 days as adjuvant to prednisone; cited from earlier work
Grade II GI GVHD = details: capsule form, 8 mg/day divided into 4 equal doses; cited from earlier work
[5] = 200 days post-transplant, safety population, 61 evaluable
[6] = orBec n = 62, p 0.006 vs placebo
[7] = up to 28 days of BDP 8 mg/day, both groups (taking prednisone or not)

CCC(=O)OCC(=O)[C@@]1(OC(=O)CC)[C@@H](C)C[C@H]2[C@@H]3CCC4=CC(=O)C=C[C@]4(C)[C@@]3(Cl)[C@@H](O)C[C@@]21C [BDP, Beclomethasone 17,21-dipropionate]
Cumulative treatment failure rate (Kaplan-Meier estimate) ([1]; Study day 10, P = 0.1538 vs placebo): 0.14
Cumulative events (treatment failures) ([1]; Study day 10): 8
Cumulative treatment failure rate (Kaplan-Meier estimate) ([1]; Study day 30, P = 0.3625 vs placebo): 0.25
Cumulative events (treatment failures) ([1]; Study day 30): 15
Cumulative treatment failure rate (Kaplan-Meier estimate) ([1]; Study day 50, P = 0.0515 vs placebo): 0.31
Cumulative events (treatment failures) ([1]; Study day 50): 18
Cumulative treatment failure rate (Kaplan-Meier estimate) ([1]; Study day 60, P = 0.0558 vs placebo): 0.33
Cumulative events (treatment failures) ([1]; Study day 60): 19
Cumulative treatment failure rate (Kaplan-Meier estimate) ([1]; Study day 80, P = 0.0048 vs placebo): 0.39
Cumulative events (treatment failures) ([1]; Study day 80): 22
time to treatment failure through Day 50 (primary endpoint) versus placebo ([1]; log-rank, p-value 0.1177): did not achieve statistical significance
Treatment Failure Rate at Study Day 80 ([1]; orBec 8 mg/day for 50 days + prednisone, n = 62, p 0.0048 vs placebo): 39%
Treatment Failure Rate at Study Day 50 ([1]; orBec 8 mg/day for 50 days + prednisone, n = 62, p 0.0515 vs placebo): 31%
time to treatment failure through Day 80 (secondary endpoint) versus placebo ([1]; p-value 0.0226): did achieve statistical significance
Survival status: Alive, number of subjects [2, 5]: 56
Survival status: Alive, percent of subjects [2, 5]: 92%
Survival status: Dead, number of subjects [2, 5]: 5
Survival status: Dead, percent of subjects [2, 5]: 8%
reduction in mortality versus placebo group ([2]; Day 200 post-transplant period): 70%
Mortality Rate at 200 Days Post-Transplant [2, 6]: 8%
Mortality at 200 Days Post-Transplant, number of deaths [2, 6]: 5
Day 200 survival rate ([2]; safety population, Z = 2.750, P = 0.0060 vs placebo): 0.91
study drug associated adverse events reported ([3]; BDP 8 mg/day for 28 days): mild metallic taste and mild peri-umbilical heaviness
treatment-related adverse events ([3]; BDP 8 mg/day for 28 days): No significant treatment-related adverse events were observed
timing of response versus historical high dose prednisone ([3]; BDP alone group): appeared to be slower
gastrointestinal symptoms versus baseline [3, 7]: abatement of most gastrointestinal symptoms
oral food intake versus baseline [3, 7]: increase in oral food intake
gastrointestinal symptoms (nausea, vomiting, diarrhea) versus placebo group [4]: all improved
proportion of patients with increased oral caloric intake versus prednisone plus placebo [4]: significantly higher proportion
clinical benefit in treatment of Grade II GI GVHD (Grade II GI GVHD): provide clinical benefit

From patent US20060252735A1, “Treatment of graft-versus-host disease and leukemia with beclomethasone dipropionate and prednisone” (DOR BioPharma, Inc., priority 2004, published 2006)
